# From patent US20080161232A1, “C5a Receptor Antagonist” (JERINI AG, priority 2005, published 2008)
# Starred links: 1 amine or outer side, 2 acyl side, 3 side chain; linkers in the order of their positions; H or OH if unused. Non-standard residues stand in square brackets, D forms with d. Residues, ends and D or L forms follow the SMILES beside them. *: point of attachment. Propanoyl(3,3-Ph2) = O=C(CC(c1ccccc1)c1ccccc1)*; Phe(4-Cl) = N[C@@H](Cc1ccc(Cl)cc1)C(=O)O; Dip = N[C@H](C(=O)O)C(c1ccccc1)c1ccccc1; Bta = N[C@@H](Cc1csc2ccccc12)C(=O)O; NMeF = CN[C@@H](Cc1ccccc1)C(=O)O; 2Thi = N[C@@H](Cc1cccs1)C(=O)O; dCha = N[C@H](CC1CCCCC1)C(=O)O; NHPhenethyl = c1ccc(CCN*)cc1; Orn = NCCC[C@H](N)C(=O)O; Aze = O=C(O)[C@@H]1CCN1; CO = O=C([*:1])[*:2]; NHBu = CCCCN*
# Molecular target: T1, human C5aR(CD88) (Homo sapiens, UniProt P21730)
# T1 construct: expressed in transfected cells; host or cells: rat basophilic leukemia cells (RBL)
# T1 sequence (P21730 1-350): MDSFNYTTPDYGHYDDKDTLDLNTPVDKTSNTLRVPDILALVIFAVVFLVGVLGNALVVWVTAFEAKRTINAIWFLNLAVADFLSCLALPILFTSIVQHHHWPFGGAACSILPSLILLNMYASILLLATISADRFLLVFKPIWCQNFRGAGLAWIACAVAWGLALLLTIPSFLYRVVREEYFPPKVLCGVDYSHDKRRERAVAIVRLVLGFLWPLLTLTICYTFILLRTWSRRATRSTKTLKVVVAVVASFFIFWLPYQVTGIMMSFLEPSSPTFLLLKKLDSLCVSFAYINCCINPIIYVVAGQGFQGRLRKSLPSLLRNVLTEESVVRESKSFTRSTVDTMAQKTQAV
# Test: Determination of the IC50 value in an enzyme release assay (functional assay, antagonistic activity)
# Format: cell-based
# Settings: antagonistic activity; IC50 group in enzyme release assay, RBL cells expressing human C5aR(CD88); read-out: activity (group)
row,Structure (SMILES),IC50 [µM]
1,"CC(=O)N[C@@H](Cc1ccccc1)C(=O)N[C@@H](CCCN)C(=O)N1CCC[C@H]1C(=O)N[C@H](CC1CCCCC1)C(=O)N[C@@H](Cc1c[nH]c2ccccc12)C(=O)NCCc1ccccc1 [Compound 72, Ac-Phe-Orn-Pro-cha-Trp-NH—CH2—CH2-Ph] (Ac-F[Orn]P[dCha]W-NHPhenethyl)",0.2 to 2
2,"CC(=O)N[C@@H](Cc1ccccc1)C(=O)N[C@@H](CCCN)C(=O)N1CC[C@H]1C(=O)N[C@H](CC1CCCCC1)C(=O)N[C@@H](Cc1csc2ccccc12)C(=O)NCCc1ccccc1 [Compound 73, Ac-Phe-Orn-Aze-cha-Bta-NH—CH2—CH2-Ph] (Ac-F[Orn][Aze][dCha][Bta]-NHPhenethyl)",0.2 to 2
3,"NCCC[C@H](NC(=O)[C@@H](N)Cc1ccccc1)C(=O)N1CCC[C@H]1C(=O)N[C@H](CC1CCCCC1)C(=O)N[C@@H](Cc1c[nH]c2ccccc12)C(=O)N[C@@H](Cc1ccccc1)C(N)=O [Compound 74, H-Phe-Orn-Pro-cha-Trp-Phe-NH2] (H-F[Orn]P[dCha]WF-NH2)",0.05 to 0.2
4,"CCCCNC(=O)N[C@@H](Cc1ccccc1)C(=O)N[C@@H](CCCN)C(=O)N1CCC[C@H]1C(=O)N[C@H](CC1CCCCC1)C(=O)N[C@@H](Cc1c[nH]c2ccccc12)C(=O)N[C@@H](Cc1ccccc1)C(N)=O [Compound 76, Bu-NH—CO-Phe-Orn-Pro-cha-Trp-Phe-NH2] ({NHBu-CO}-F[Orn]P[dCha]WF-NH2)",0.2 to 2
5,"CC(=O)N[C@@H](Cc1ccccc1)C(=O)N[C@@H](CCCN)C(=O)N1CC[C@H]1C(=O)N[C@H](CC1CCCCC1)C(=O)N[C@@H](Cc1ccc(Cl)cc1)C(=O)N[C@@H](Cc1ccccc1)C(N)=O [Compound 81, Ac-Phe-Orn-Aze-cha-Pcf-Phe-NH2] (Ac-F[Orn][Aze][dCha][Phe(4-Cl)]F-NH2)",0.2 to 2

# Continued, values first:
row,IC50 [µM],Structure (SMILES)
1,0.2 to 2,"NCCC[C@H](NC(=O)CC(c1ccccc1)c1ccccc1)C(=O)N1CCC[C@H]1C(=O)N[C@H](CC1CCCCC1)C(=O)N[C@@H](Cc1c[nH]c2ccccc12)C(=O)N[C@@H](Cc1ccccc1)C(N)=O [Compound 70, Ph2-CH—CH2—CO-Orn-Pro-cha-Trp-Phe-NH2] ({Propanoyl(3,3-Ph2)}-[Orn]P[dCha]WF-NH2)"
2,0.05 to 0.2,"CN[C@@H](Cc1ccccc1)C(=O)N[C@@H](CCCN)C(=O)N1CCC[C@H]1C(=O)N[C@H](CC1CCCCC1)C(=O)N[C@@H](Cc1c[nH]c2ccccc12)C(=O)N[C@@H](Cc1ccccc1)C(N)=O [Compound 75, H—Me-Phe-Orn-Pro-cha-Trp-Phe-NH2] (H-[NMeF][Orn]P[dCha]WF-NH2)"
3,0.05 to 0.2,"CC(=O)N[C@@H](Cc1cccs1)C(=O)N[C@@H](CCCN)C(=O)N1CCC[C@H]1C(=O)N[C@H](CC1CCCCC1)C(=O)N[C@@H](Cc1c[nH]c2ccccc12)C(=O)N[C@@H](Cc1ccccc1)C(N)=O [Compound 77, Ac-Thi-Orn-Pro-cha-Trp-Phe-NH2] (Ac-[2Thi][Orn]P[dCha]WF-NH2)"
4,0.05 to 0.2,"CC(=O)N[C@H](C(=O)N[C@@H](CCCN)C(=O)N1CCC[C@H]1C(=O)N[C@H](CC1CCCCC1)C(=O)N[C@@H](Cc1c[nH]c2ccccc12)C(=O)N[C@@H](Cc1ccccc1)C(N)=O)C(c1ccccc1)c1ccccc1 [Compound 78, Ac-Ebw-Orn-Pro-cha-Trp-Phe-NH2] (Ac-[Dip][Orn]P[dCha]WF-NH2)"
5,0.05 to 0.2,"CC(=O)N[C@@H](Cc1ccccc1)C(=O)N[C@@H](CCCN)C(=O)N[C@@H](C)C(=O)N[C@H](CC1CCCCC1)C(=O)N[C@@H](Cc1c[nH]c2ccccc12)C(=O)N[C@@H](Cc1ccccc1)C(N)=O [Compound 79, Ac-Phe-Orn-Ala-cha-Trp-Phe-NH2] (Ac-F[Orn]A[dCha]WF-NH2)"
6,0.05 to 0.2,"CC(=O)N[C@@H](Cc1ccccc1)C(=O)N[C@@H](CCCN)C(=O)N1CCC[C@H]1C(=O)N[C@H](CC1CCCCC1)C(=O)N[C@@H](Cc1c[nH]c2ccccc12)C(=O)N[C@@H](Cc1cccs1)C(N)=O [Compound 80, Ac-Phe-Orn-Pro-cha-Trp-Thi-NH2] (Ac-F[Orn]P[dCha]W[2Thi]-NH2)"
